The values that follow are results of earlier work, collected in patent US20070298029A1, “Treatment of Neurodegenerative Diseases by the Use of Degs Inhibitors” (priority 2004, published 2007).

This data set addresses T1, dihydroceramide desaturase (Rattus norvegicus, UniProt Q5XIF5).
T1 sequence (Q5XIF5 1-323): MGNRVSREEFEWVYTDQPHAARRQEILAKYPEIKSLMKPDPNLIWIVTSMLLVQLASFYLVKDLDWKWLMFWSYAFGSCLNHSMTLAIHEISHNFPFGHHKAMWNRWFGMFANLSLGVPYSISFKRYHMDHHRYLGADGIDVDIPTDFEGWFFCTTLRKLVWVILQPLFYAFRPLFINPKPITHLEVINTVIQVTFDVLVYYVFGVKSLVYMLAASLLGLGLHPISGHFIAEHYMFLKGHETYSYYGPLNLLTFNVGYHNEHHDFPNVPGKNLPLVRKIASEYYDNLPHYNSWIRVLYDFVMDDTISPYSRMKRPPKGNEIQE
The conditions noted are these: competitive inhibitor.

As for `CCCCCCCCCCCCCC1=C([C@H](O)[C@@H](CO)NC(=O)CCCCCCC)C1` [GT11, N-[(1R,2S)-2-hydroxy-1-hydroxymethyl-2-(2-tridecyl-1-cyclopropenyl)ethyl]octanamide], the Ki (as a rule, a dissociation constant, usually derived from enzyme kinetics or from competition with a known ligand) is 6 µM.
